Tests used:
[1] = test system: MSSA (sensitive strain) co-seeded with MRSA (resistant strain); test: Co-seeded agar plate assay (Assay Protocol A), MSSA sensitive / MRSA resistant strain; format: cell-based, Staphylococcus aureus; details: co-seeding ratio 500:1, 10 μL in DMSO, 37° C., 12 to 18 hours
Experimental: Each of a pair of bacterial strains, one sensitive and one resistant to a particular antibacterial agent, was grown by inoculating 25 mL of LB broth (i.e., 10 g of tryptone, 5 g of yeast extract, and 10 g NaCl per liter of water) with 1 to 5 colonies in an Erlenmeyer flask, and then holding the mixture overnight at a temperature of 37° C. while agitating the mixture via rotary shaking (200 rpm). Each batch was allowed to cool to room temperature (about 25° C.). Following OD measurements at λ=600 nm to ensure that both strains have grown to similar densities (i.e., a variation of 10% or less), a sample from the batch of the “sensitive” strain was diluted 10-fold in LB growth medium, and a sample of the “resistant” strain was diluted 500-fold or more to provide a final ratio (i.e., co-seeding ratio) of 50 or more sensitive cells to 1 resistant cell. A 750 μL sample of each of the diluted strains was then mixed into 20 mL of molten agar/growth medium agar (melt temperature=48° C.) (KD Medical's Cat. No. BLF-7070) and poured into rectangular 8.5×12.5 cm Omnitray dishes (Nalge NUNC Intl. Cat No. 242811). Wells were cast by applying custom-made pins (about 3 mm in diameter and 5 mm deep; Nalge NUNC Intl.) into the surface of the molten mixture (48 or 96 pins arrayed over the 8.5×12.5 cm surface) and then allowing the mixture to harden to provide an assay plate. Test samples dissolved in DMSO were added to the wells, after which the assay plate was incubated at 37° C. for a time sufficient to allow visual detection of cell colonies (i.e., 12 to 18 hours). The plates were then examined for zones of growth and inhibition under ambient light.
The tests set forth in Table 1 were conducted in the manner described in Assay Protocol A, except that in the case of the streptomycin-resistant strain, the inoculated liquid growth medium also contained 25 ug/mL of streptomycin in order to ensure that resistance was not lost during growth.

[2] = test system: MRSA (sensitive strain) co-seeded with CRMRSA (resistant strain); test: Co-seeded agar plate assay (Assay Protocol A), MRSA sensitive / CRMRSA resistant strain; format: cell-based, Staphylococcus aureus; details: co-seeding ratio 100:1, 10 μL in DMSO, 37° C., 12 to 18 hours
Experimental: (§1) Each of a pair of bacterial strains, one sensitive and one resistant to a particular antibacterial agent, was grown by inoculating 25 mL of LB broth (i.e., 10 g of tryptone, 5 g of yeast extract, and 10 g NaCl per liter of water) with 1 to 5 colonies in an Erlenmeyer flask, and then holding the mixture overnight at a temperature of 37° C. while agitating the mixture via rotary shaking (200 rpm). Each batch was allowed to cool to room temperature (about 25° C.). Following OD measurements at λ=600 nm to ensure that both strains have grown to similar densities (i.e., a variation of 10% or less), a sample from the batch of the “sensitive” strain was diluted 10-fold in LB growth medium, and a sample of the “resistant” strain was diluted 500-fold or more to provide a final ratio (i.e., co-seeding ratio) of 50 or more sensitive cells to 1 resistant cell. A 750 μL sample of each of the diluted strains was then mixed into 20 mL of molten agar/growth medium agar (melt temperature=48° C.) (KD Medical's Cat. No. BLF-7070) and poured into rectangular 8.5×12.5 cm Omnitray dishes (Nalge NUNC Intl. Cat No. 242811). Wells were cast by applying custom-made pins (about 3 mm in diameter and 5 mm deep; Nalge NUNC Intl.) into the surface of the molten mixture (48 or 96 pins arrayed over the 8.5×12.5 cm surface) and then allowing the mixture to harden to provide an assay plate. […]

[3] = test system: S-eEF2 (sensitive strain) co-seeded with HS-eEF2 (resistant strain); test: Co-seeded agar plate assay (Assay Protocol B), S-eEF2 sensitive / HS-eEF2 resistant yeast strain; format: cell-based, Saccharomyces cerevisiae; details: co-seeding ratio 50:1, DMSO solution, overnight at 29° C.
Experimental: Assay Protocol B The S. cerevisiae yeast strains, S-eEF2 and HS-eEF2, were each grown overnight from a single colony in 5 mL YPAD (i.e., 1% yeast extract, 2% peptone, 0.004% adenine sulfate, and 2% glucose) in an Erlenmeyer flask at 29° C. with shaking on a roller drum. The sensitive strain S-eEF2 was diluted with additional YPAD to give a final absorbance at λ=600 nm of 0.01 (control =YPAD), and the resistant strain HS-eEF2 was diluted to an absorbance at λ=600 nm of 0.0002. Each strain (5 mL) was added to a glass test tube containing 25 mL of molten YPAD agar equilibrated at 50° C. The mixture was then stirred briefly and poured onto sterile disposable 86×128-mm plastic dishes (NUNC Cat. No. 242811). The dishes were cooled for 5 minutes at room temperature, dried in a hood, and then stored for no more than 2 days until ready for treatment with test substances. Test substances were dissolved in the appropriate solvent and a suitable portion of the solution was spotted on the co-seeded plates. The plates were incubated overnight at 29° C., and then inspected visually for the appearance of zones of growth and inhibition, and particularly for the appearance of resistant colonies capable of growing in the presence of the test substances.
The tests set forth in Table 2 were conducted in the manner described in Assay Protocol B.

[4] = test system: DH5 (sensitive strain) co-seeded with pKS-DH5 (resistant strain); test: Co-seeded agar plate assay (Assay Protocol A), DH5 sensitive / pKS-DH5 resistant strain; format: cell-based, Escherichia coli; details: Run 6, FIG. 3; co-seeding ratio 500:1; 100 mg/mL, 10 μL in DMSO; 37° C., 12 to 18 hours
Experimental: as §1

[5] = test system: ATCC 9637 (sensitive strain) co-seeded with MB941 (resistant strain); test: Co-seeded agar plate assay (Assay Protocol A), ATCC 9637 sensitive / MB941 resistant strain; format: cell-based, E. coli; details: co-seeding ratio 1000:1, 10 μL in DMSO, 37° C., 12 to 18 hours
Experimental: as §1

Structure (SMILES): O=C(N[C@H](CO)[C@H](O)c1ccc([N+](=O)[O-])cc1)C(Cl)Cl [chloramphenicol]
- zone of growth inhibition (appearance, resistant colonies) ([1]; Run 1, FIG. 1A, 100 μg/mL): visually contains no resistant colonies
- zone of growth inhibition (appearance, resistant colonies) ([2]; Run 5, FIG. 2B, 1 mg/mL): zone of no growth containing isolated colonies of resistant bacteria

Structure (SMILES): CO[C@H]1[C@@H](O)[C@H](O)[C@H](OC[C@@]23C[C@@H]4[C@H](C)CC[C@H]4[C@@]4(C=O)CC2C=C(C(C)C)[C@@]34C(=O)O)O[C@@H]1C [sordarin]
- zone of growth inhibition (appearance, resistant colonies) ([3]; Run 10, FIG. 5B, 2 μg spotted): zone of growth inhibition in which resistant colonies are present

Structure (SMILES): O=C(O)c1cn(C2CC2)c2cc(N3CCNCC3)c(F)cc2c1=O [ciproflaxin, ciprofloxacin]
- zone of growth inhibition (appearance, resistant colonies) ([2]; Run 4, FIG. 2A, 50 μg/mL): clear zone of no growth

Structure (SMILES): CO[C@@]1(NC(=O)Cc2cccs2)C(=O)N2C(C(=O)O)=C(COC(N)=O)CS[C@@H]21 [cefoxitin]
- zone of growth inhibition (appearance, resistant colonies) ([1]; Run 3, FIG. 1C, 500 μg/mL): a multitude of resistant colonies throughout the inhibition zone

Structure (SMILES): CC1(C)S[C@@H]2[C@H](NC(=O)[C@H](N)c3ccccc3)C(=O)N2[C@H]1C(=O)O [ampicillin]
- zone of growth inhibition (appearance, resistant colonies) [4]: isolated resistant colonies within a zone that otherwise exhibits no growth

Structure (SMILES): CN(C)[C@@H]1C(O)=C(C(N)=O)C(=O)[C@@]2(O)C(O)=C3C(=O)c4c(O)cccc4[C@@](C)(O)[C@H]3C[C@@H]12 [tetracylin, tetracyclin]
- zone of growth inhibition (appearance, resistant colonies) ([5]; Run 7, FIG. 4A, 1 mg/mL): clear zone of no growth

Structure (SMILES): CC(=O)O[C@@H]1C[C@]23C4=CC[C@@]5(C)[C@H](C(=O)O)[C@@](C)([C@H](C)C(C)C)CC[C@]5(C)[C@H]4CC[C@H]2[C@@](C)(COC3O)[C@H]1O[C@@H]1O[C@H](CO)[C@@H](O)[C@H](O)[C@H]1O (stereo partly shown) [enfumafungin]
- zone of growth inhibition (appearance, resistant colonies) ([3]; Run 9, FIG. 5A, 0.2 μg spotted): visually clear zone exhibiting no growth of either the sensitive or the resistant strain

Structure (SMILES): [H]/N=C(/N)N[C@H]1[C@H](O)[C@@H](O)[C@H](O[C@@H]2O[C@@H](C)[C@](O)(C=O)[C@H]2O[C@@H]2O[C@@H](CO)[C@H](O)[C@@H](O)[C@@H]2NC)[C@@H](N/C(N)=N\[H])[C@@H]1O [streptomycin]
- zone of growth inhibition (appearance, resistant colonies) ([1]; Run 2, FIG. 1B, 1 mg/mL): a few colonies at or near the border of the inhibition zone
- zone of growth inhibition (appearance, resistant colonies) ([5]; Run 8, FIG. 4B, 500 μg/mL): zone of no growth containing isolated colonies of resistant bacteria

Source: patent US20060286624A1, “Method for identifying selective growth inhibitors” (priority 2003, published 2006)
